Source: ChEMBL document CHEMBL3885861, “Open TG-GATES”

Species: Rattus norvegicus
Assay: Open TG-GATES - Regimen: Single
Assay type: toxicity, organism-based, Sprague-Dawley
Parameters: regimen Single, gender Male, age 6 weeks
Settings: in vivo, po, 100 mg/kg, route gavage, dose level High; for APTT / Bas / Eos / Fbg / Hb / Ht / Lym / MCH / MCHC / MCV / Mono / Neu / PT / Plat / RBC / Ret / WBC: tissue Blood; for KIDNEY_L / KIDNEY_R / KIDNEY_TOTAL: tissue Kidney; for LIVER: tissue Liver; for A/G / ALP / ALT / AST / BUN / CRE / Ca / Cl / DBIL / GLC / IP / K / LDH / Na / PL / RALB / TBIL / TC / TG / TP / gamma-GTP: tissue Plasma

CCCc1cc(=O)[nH]c(=S)[nH]1 [PROPYLTHIOURACIL]
TERMINAL_BW (3 h): 180.9 g
APTT (3 h): 15.7 s
Bas (3 h): 0%
Eos (3 h): 0.6%
Fbg (3 h): 210 mg/dL
Hb (3 h): 13.3 g/dL
Ht (3 h): 39.7%
Lym (3 h): 82.6%
MCH (3 h): 21.7 pg
MCHC (3 h): 33.3%
MCV (3 h): 65.1 fL
Mono (3 h): 5.8%
Neu (3 h): 10.8%
PT (3 h): 12.9 s
Plat (3 h): 99.3 x10_4/uL
RBC (3 h): 611.2 x10_4/ul
Ret (3 h): 9.7%
WBC (3 h): 96.7 x10_2/uL
KIDNEY_L (3 h): 0.8 g
KIDNEY_R (3 h): 0.8 g
KIDNEY_TOTAL (3 h): 1.6 g
LIVER (3 h): 8.3 g
A/G (3 h): 1.9
ALP (3 h): 858.8 IU/L
ALT (3 h): 38 IU/L
AST (3 h): 70.2 IU/L
BUN (3 h): 12.6 mg/dL
CRE (3 h): 0.4 mg/dL
Ca (3 h): 10.9 mg/dL
Cl (3 h): 105 meq/L
DBIL (3 h): 0.03 mg/dL
GLC (3 h): 189.4 mg/dL
IP (3 h): 10.9 mg/dL
K (3 h): 4.2 meq/L
LDH (3 h): 141 IU/L
Na (3 h): 138.4 meq/L
PL (3 h): 138 mg/dL
RALB (3 h): 3.7 g/dL
TBIL (3 h): 0.3 mg/dL
TC (3 h): 83.4 mg/dL
TG (3 h): 27 mg/dL
TP (3 h): 5.6 g/dL
gamma-GTP (3 h): 2 IU/L
TERMINAL_BW (6 h): 176.2 g
APTT (6 h): 16.5 s
Bas (6 h): 0%
Eos (6 h): 0.6%
Fbg (6 h): 213.2 mg/dL
Hb (6 h): 13.2 g/dL
Ht (6 h): 39.9%
Lym (6 h): 76%
MCH (6 h): 21.6 pg
MCHC (6 h): 33.2%
MCV (6 h): 65 fL
Mono (6 h): 5.2%
Neu (6 h): 18.2%
PT (6 h): 12.8 s
Plat (6 h): 106.5 x10_4/uL
RBC (6 h): 612.8 x10_4/ul
Ret (6 h): 9.9%
WBC (6 h): 77.1 x10_2/uL
KIDNEY_L (6 h): 0.8 g
KIDNEY_R (6 h): 0.8 g
KIDNEY_TOTAL (6 h): 1.6 g
LIVER (6 h): 7.5 g
A/G (6 h): 2.1
ALP (6 h): 762.4 IU/L
ALT (6 h): 27.8 IU/L
AST (6 h): 64 IU/L
BUN (6 h): 11.4 mg/dL
CRE (6 h): 0.4 mg/dL
Ca (6 h): 11 mg/dL
Cl (6 h): 105.4 meq/L
DBIL (6 h): 0.048 mg/dL
GLC (6 h): 186.8 mg/dL
IP (6 h): 10.5 mg/dL
K (6 h): 4.6 meq/L
LDH (6 h): 139.2 IU/L
Na (6 h): 139 meq/L
PL (6 h): 136.6 mg/dL
RALB (6 h): 3.8 g/dL
TBIL (6 h): 0.4 mg/dL
TC (6 h): 78.8 mg/dL
TG (6 h): 23 mg/dL
TP (6 h): 5.6 g/dL
gamma-GTP (6 h): 2 IU/L
TERMINAL_BW (9 h): 173.6 g
APTT (9 h): 15.9 s
Bas (9 h): 0%
Eos (9 h): 1.2%
Fbg (9 h): 207.4 mg/dL
Hb (9 h): 12.9 g/dL
Ht (9 h): 38.8%
Lym (9 h): 73.6%
MCH (9 h): 21.7 pg
MCHC (9 h): 33.3%
MCV (9 h): 65.1 fL
Mono (9 h): 8.2%
Neu (9 h): 17.2%
PT (9 h): 12.8 s
Plat (9 h): 110.6 x10_4/uL
RBC (9 h): 597.2 x10_4/ul
Ret (9 h): 9.9%
WBC (9 h): 65.2 x10_2/uL
KIDNEY_L (9 h): 0.8 g
KIDNEY_R (9 h): 0.8 g
KIDNEY_TOTAL (9 h): 1.6 g
LIVER (9 h): 7 g
A/G (9 h): 1.9
ALP (9 h): 879.2 IU/L
ALT (9 h): 31.2 IU/L
AST (9 h): 68 IU/L
BUN (9 h): 13.6 mg/dL
CRE (9 h): 0.4 mg/dL
Ca (9 h): 10.8 mg/dL
Cl (9 h): 108 meq/L
DBIL (9 h): 0.008 mg/dL
GLC (9 h): 186.6 mg/dL
IP (9 h): 10.4 mg/dL
K (9 h): 4.8 meq/L
LDH (9 h): 176.8 IU/L
Na (9 h): 139.4 meq/L
PL (9 h): 141.4 mg/dL
RALB (9 h): 3.6 g/dL
TBIL (9 h): 0.4 mg/dL
TC (9 h): 83.2 mg/dL
TG (9 h): 28 mg/dL
TP (9 h): 5.5 g/dL
gamma-GTP (9 h): 1.4 IU/L
TERMINAL_BW (24 h): 186.8 g
APTT (24 h): 15.6 s
Bas (24 h): 0%
Eos (24 h): 1%
Fbg (24 h): 217 mg/dL
Hb (24 h): 13.1 g/dL
Ht (24 h): 39.5%
Lym (24 h): 77.6%
MCH (24 h): 21.7 pg
MCHC (24 h): 33%
MCV (24 h): 65.7 fL
Mono (24 h): 7.2%
Neu (24 h): 14.6%
PT (24 h): 12.2 s
Plat (24 h): 108.5 x10_4/uL
RBC (24 h): 601.8 x10_4/ul
Ret (24 h): 9.3%
WBC (24 h): 115.2 x10_2/uL
KIDNEY_L (24 h): 0.9 g
KIDNEY_R (24 h): 0.9 g
KIDNEY_TOTAL (24 h): 1.7 g
LIVER (24 h): 9.9 g
A/G (24 h): 1.8
ALP (24 h): 1169.8 IU/L
ALT (24 h): 42.6 IU/L
AST (24 h): 69.2 IU/L
BUN (24 h): 17.4 mg/dL
CRE (24 h): 0.5 mg/dL
Ca (24 h): 11.2 mg/dL
Cl (24 h): 106.8 meq/L
DBIL (24 h): 0.014 mg/dL
GLC (24 h): 175.2 mg/dL
IP (24 h): 8.1 mg/dL
K (24 h): 5 meq/L
LDH (24 h): 192.4 IU/L
Na (24 h): 139.8 meq/L
PL (24 h): 170.6 mg/dL
RALB (24 h): 3.7 g/dL
TBIL (24 h): 0.3 mg/dL
TC (24 h): 97.8 mg/dL
TG (24 h): 107 mg/dL
TP (24 h): 5.7 g/dL
gamma-GTP (24 h): 1.2 IU/L
